A short description of assay [1]: Changes in blood glucose after an identical meal and coffee containing the sweetener composition. Format: in vivo, human. Conditions: for Post-meal increase in blood glucose: result in words. Here is the method: (1) Preparation of Test Specimen for Measuring Blood Glucose and Method of Intake
(§1) The sweetener composition intake was conducted by providing subjects with an identical meal and then allowing them to drink coffee containing the sweetener composition.
(2) Measurement of Changes in Blood Glucose Levels
(§2) In order to measure changes in blood glucose after the meal, blood glucose level before meal was checked, followed by providing the subjects with the meal and then coffee was given. Blood glucose was measured for 2 hours at intervals of 30 minutes.

Assay [2] can be described thus: Area under the curve of blood glucose (G-AUC) after meal and coffee containing the sweetener composition. The format is in vivo, human. Here is the method:
as §1, §2

The mark [3] stands for this setting: 0 min (before meal), normal subjects, five males and five females.
Where [4] appears, read: 30 min after meal and coffee, * = p < 0.01 or less vs Comparative Example 1 (sugar).
The mark [5] stands for this setting: 60 min after meal and coffee, * = p < 0.01 or less vs Comparative Example 1 (sugar).
[6] abbreviates: 90 min after meal and coffee, * = p < 0.01 or less vs Comparative Example 1 (sugar).

On to `OC[C@H]1O[C@@](CO)(O[C@H]2O[C@H](CO)[C@@H](O)[C@H](O)[C@H]2O)[C@@H](O)[C@@H]1O` [Comparative Example 1, Sugar], for which the Blood glucose in assay [1] (setting [3]) worked out at 93.1 mg/dL; in assay [1] (setting [4]), 139.1 mg/dL; in assay [1] (setting [5]), 123.7 mg/dL; in assay [1] (setting [6]) it was 98.5 mg/dL; in assay [1] (120 min after meal and coffee) it was 96.7 mg/dL. The “Post-meal increase in blood glucose” value in assay [1] was “highest increase in blood glucose”. The G-AUC was found to be 3483 mg·min/dL in assay [2] (to 30 min), 7425 mg·min/dL in assay [2] (to 60 min), 10758 mg·min/dL in assay [2] (to 90 min) and 13686 mg·min/dL in assay [2] (to 120 min).
Take `O=C(CO)[C@H](O)[C@H](O)[C@H](O)CO` [Comparative Example 3, D-psicose]: the Blood glucose was 92.4 mg/dL in assay [1] (setting [3]); 123.3 mg/dL in assay [1] (setting [4]); 114.5 mg/dL in assay [1] (setting [5]); 93.1 mg/dL in assay [1] (setting [6]); 94.1 mg/dL in assay [1] (120 min after meal and coffee). Further, in assay [1], the “Post-meal increase in blood glucose” value is “lowering increase in blood glucose after the meal”. Also, the G-AUC was determined as 3236 mg·min/dL in assay [2] (to 30 min), 6803 mg·min/dL in assay [2] (to 60 min), 9917 mg·min/dL in assay [2] (to 90 min) and 12725 mg·min/dL in assay [2] (to 120 min).
In the case of `OC[C@@H](O)[C@@H](O)CO` [Comparative Example 2, Erythritol], the Blood glucose in assay [1] (setting [3]) is 92.8 mg/dL; in assay [1] (setting [4]), 137.1 mg/dL; in assay [1] (setting [5]), 121.6 mg/dL; in assay [1] (setting [6]) it was 97.7 mg/dL; in assay [1] (120 min after meal and coffee), 97.2 mg/dL. In addition, the “Post-meal increase in blood glucose” value in assay [1] is recorded as “increase in blood glucose due to the meal only”. In addition, the G-AUC in assay [2] (to 30 min) was determined as 3449 mg·min/dL; in assay [2] (to 60 min) it was 7329 mg·min/dL; in assay [2] (to 90 min) it was 10619 mg·min/dL; in assay [2] (to 120 min) it was 13542 mg·min/dL.

(Values after US20160324201A1, “SWEETENER COMPOSITION FOR ALLEVIATING DIABETES, CONTAINING SLOWLY DIGESTIBLE INGREDIENT” (CJ CHEILJEDANG CORPORATION, priority 2011, published 2016).)
